≈ marks a conversion by molar mass, not a printed value.
Legend:
[1] = system: L1210, CEM and HeLa cell lines; experiment: Cytostatic activity, average or summary over L1210, CEM and HeLa; type: cell-based; conditions: average of L1210, CEM and HeLa; read-out: Toxicity (IC50) Average
Method: (§1) Murine leukemia (L1210), human T-lymphocyte (CEM) and the human cervix carcinoma (HeLa) cell line were suspended at 300,000–500,000 cells/mL of culture medium, and 100 μL of a cell suspension was added to 100 μL of an appropriate dilution of the test compounds in wells of 96-well microtiter plates. After incubation at 37°C for 2 (L1210), 3 (CEM), or 4 (HeLa) days, the cell number was determined using a Coulter counter. The IC50 was defined per cell type as the compound concentration required to inhibit cell proliferation by 50% compared to the negative control ([Glowacka et al., 2017]).

MRSA KS89 = experiment: MIC, broth microdilution, MRSA KS89; type: cell-based, Staphylococcus aureus; conditions: for MIC-fold improvement vs. vancomycin: MRSA KS8, ratio of MIC of vancomycin and MIC of analogue; for MIC: Staphylococcus aureus MRSA KS8, read-out: MIC
Method: (§2) The minimum inhibitory concentration (MIC) was determined using the broth microdilution method according to the antimicrobial susceptibility testing standards of the clinical and laboratory standards institute ([Clinical and Laboratory Standards Institute [CLSI], 2012]). Ultrapure water and non-inoculated broth were used as controls. In one case, a final concentration of 10 μM vancomycin was included with the vancomycin analog or control antibiotic.

S. aureus VISA/HIP5827 = experiment: MIC, broth microdilution, vancomycin-intermediate S. aureus VISA HIP5827; type: cell-based, Staphylococcus aureus; conditions: for MIC: Staphylococcus aureus VISA/HIP5827, read-out: MIC; for MIC-fold improvement vs. vancomycin: VISA/HIP5827, ratio of MIC of vancomycin and MIC of analogue
Method: as §2

E. faecalis VRE 29 = experiment: MIC, broth microdilution, vancomycin-resistant E. faecalis VRE 29 (VanA); type: cell-based, Enterococcus faecalis; conditions: for MIC: Enterococcus faecalis VRE 29 (vancomycin-resistant), read-out: MIC; for MIC-fold improvement vs. vancomycin: VRE 29, ratio of MIC of vancomycin and MIC of analogue
Method: as §2

E. faecalis VRE 53 = experiment: MIC, broth microdilution, vancomycin-resistant E. faecalis VRE 53 (VanA); type: cell-based, Enterococcus faecalis; conditions: for MIC: Enterococcus faecalis VRE 53 (vancomycin-resistant), read-out: MIC; for MIC-fold improvement vs. vancomycin: VRE 53, ratio of MIC of vancomycin and MIC of analogue
Method: as §2

[2] = system: Murine leukemia (L1210) cells; experiment: Cytostatic activity, L1210 cell proliferation; type: cell-based; conditions: mean ± SD of three experiments; highest concentration tested 250 µM; 2 days; read-out: Toxicity (IC50) L1210
Method: as §1

[3] = system: human cervix carcinoma (HeLa) cells; experiment: Cytostatic activity, HeLa cell proliferation; type: cell-based; conditions: mean ± SD of three experiments; highest concentration tested 250 µM; 4 days; read-out: Toxicity (IC50) HeLa
Method: as §1

[4] = system: human T-lymphocyte (CEM) cells; experiment: Cytostatic activity, CEM cell proliferation; type: cell-based; conditions: mean ± SD of three experiments; highest concentration tested 250 µM; 3 days; read-out: Toxicity (IC50) CEM
Method: as §1

E. faecalis VSE 1 = experiment: MIC, broth microdilution, vancomycin-sensitive E. faecalis (VSE 1); type: cell-based, Enterococcus faecalis; conditions: for MIC: Enterococcus faecalis VSE 1 (vancomycin-sensitive), read-out: MIC; for MIC-fold improvement vs. vancomycin: VSE 1, ratio of MIC of vancomycin and MIC of analogue
Method: as §2

E. faecalis VRE 6 = experiment: MIC, broth microdilution, vancomycin-resistant E. faecalis VRE 6 (VanA); type: cell-based, Enterococcus faecalis; conditions: for MIC: Enterococcus faecalis VRE 6 (vancomycin-resistant), read-out: MIC; for MIC-fold improvement vs. vancomycin: VRE 6, ratio of MIC of vancomycin and MIC of analogue
Method: as §2

E. faecalis VRE 37 = experiment: MIC, broth microdilution, vancomycin-resistant E. faecalis VRE 37 (VanA); type: cell-based, Enterococcus faecalis; conditions: for MIC: Enterococcus faecalis VRE 37 (vancomycin-resistant), read-out: MIC; for MIC-fold improvement vs. vancomycin: VRE 37, ratio of MIC of vancomycin and MIC of analogue
Method: as §2

S. aureus VRSA = experiment: MIC, broth microdilution, vancomycin-resistant S. aureus (VRSA); type: cell-based, Staphylococcus aureus; conditions: for MIC: Staphylococcus aureus VRSA, read-out: MIC; for MIC-fold improvement vs. vancomycin: VRSA, ratio of MIC of vancomycin and MIC of analogue
Method: as §2

[5] = system: S. aureus VSSA (ATCC 6538); experiment: MIC, broth microdilution, vancomycin-sensitive S. aureus (VSSA/MSSA, ATCC 6538); type: cell-based, Staphylococcus aureus; conditions: for MIC: Staphylococcus aureus VSSA, read-out: MIC; for MIC-fold improvement vs. vancomycin: VSSA, ratio of MIC of vancomycin and MIC of analogue
Method: as §2

MRSA KS1 = experiment: MIC, broth microdilution, MRSA KS1; type: cell-based, Staphylococcus aureus
Method: as §2

MRSA KS2 = experiment: MIC, broth microdilution, MRSA KS2; type: cell-based, Staphylococcus aureus
Method: as §2

MRSA KS6 = experiment: MIC, broth microdilution, MRSA KS6; type: cell-based, Staphylococcus aureus
Method: as §2

| SMILES | MIC-fold improvement vs. vancomycin (MRSA KS89) | MIC (MRSA KS89) [µM] | MIC (S. aureus VISA/HIP5827) [µM] | MIC-fold improvement vs. vancomycin (S. aureus VISA/HIP5827) | MIC (E. faecalis VRE 29) [µM] | MIC-fold improvement vs. vancomycin (E. faecalis VRE 29) | MIC (E. faecalis VRE 53) [µM] | MIC-fold improvement vs. vancomycin (E. faecalis VRE 53) | MIC (E. faecalis VSE 1) [µM] | MIC-fold improvement vs. vancomycin (E. faecalis VSE 1) | MIC (E. faecalis VRE 6) [µM] | MIC-fold improvement vs. vancomycin (E. faecalis VRE 6) | MIC (E. faecalis VRE 37) [µM] | MIC-fold improvement vs. vancomycin (E. faecalis VRE 37) | MIC [5] [µM] | MIC-fold improvement vs. vancomycin [5] | IC50 [1] [µM] | IC50 [2] [µM] | IC50 [3] [µM] | IC50 [4] [µM] | further results |
| --- | --- | --- | --- | --- | --- | --- | --- | --- | --- | --- | --- | --- | --- | --- | --- | --- | --- | --- | --- | --- | --- |
| CNC(CC(C)C)C(=O)NC1C(=O)NC(CC(N)=O)C(=O)NC2C(=O)NC3C(=O)NC(C(=O)NC(C(=O)NCC(=O)Nc4ccc(-c5cnnn5C5OC(COC(C)=O)C(OC(C)=O)C(OC(C)=O)C5OC(C)=O)cc4)c4cc(O)cc(O)c4-c4cc3ccc4O)C(O)c3ccc(c(Cl)c3)Oc3cc2cc(c3OC2OC(CO)C(O)C(O)C2OC2CC(C)(N)C(O)C(C)O2)Oc2ccc(cc2Cl)C1O (stereo not shown) [Vanc-78] | 1 | 0.78 (≈ 1.54 µg/mL) | 3.13 (≈ 6.19 µg/mL) | 2 | 50 (≈ 98.9 µg/mL) | 8 | 50 (≈ 98.9 µg/mL) | 8 | 0.78 (≈ 1.54 µg/mL) | 2 | 3.13 (≈ 6.19 µg/mL) | 64 | 50 (≈ 98.9 µg/mL) | 8 | 0.78 (≈ 1.54 µg/mL) | 1 | 186 | > 250 | 57 ± 32 | > 250 | MIC (S. aureus VRSA): 3.13 µM (≈ 6.19 µg/mL); MIC-fold improvement vs. vancomycin (S. aureus VRSA): 32 |
| CNC(CC(C)C)C(=O)NC1C(=O)NC(CC(N)=O)C(=O)NC2C(=O)NC3C(=O)NC(C(=O)NC(C(=O)NCC(=O)Nc4ccc(C(=O)NCCCN(C)C)cc4)c4cc(O)cc(O)c4-c4cc3ccc4O)C(O)c3ccc(c(Cl)c3)Oc3cc2cc(c3OC2OC(CO)C(O)C(O)C2OC2CC(C)(N)C(O)C(C)O2)Oc2ccc(cc2Cl)C1O (stereo not shown) [Vanc-82] | 1 | 0.78 (≈ 1.33 µg/mL) | >12.5 | <0.5 | >50 | <8 | 50 (≈ 85.5 µg/mL) | 8 | 1.56 (≈ 2.67 µg/mL) | 1 | 6.25 (≈ 10.7 µg/mL) | 32 | >50 | <8 | 1.56 (≈ 2.67 µg/mL) | 0.5 | > 250 | > 250 | > 250 | > 250 | MIC (S. aureus VRSA): 3.13 µM (≈ 5.35 µg/mL); MIC-fold improvement vs. vancomycin (S. aureus VRSA): 32 |
| CN[C@H](CC(C)C)C(=O)N[C@H]1C(=O)N[C@@H](CC(N)=O)C(=O)N[C@H]2C(=O)N[C@H]3C(=O)N[C@H](C(=O)N[C@H](C(=O)NCCNC(=O)/C=C/c4ccc(OC)cc4)c4cc(O)cc(O)c4-c4cc3ccc4O)[C@H](O)c3ccc(c(Cl)c3)Oc3cc2cc(c3O[C@@H]2O[C@H](CO)[C@@H](O)[C@H](O)[C@H]2O[C@H]2C[C@](C)(N)[C@H](O)[C@H](C)O2)Oc2ccc(cc2Cl)[C@H]1O [Vanc-36] | 1 | 0.78 (≈ 1.29 µg/mL) | 0.39 (≈ 0.644 µg/mL) | 16 | 12.5 (≈ 20.6 µg/mL) | 32 | 50 (≈ 82.6 µg/mL) | 8 | 0.39 (≈ 0.644 µg/mL) | 4 | 1.56 (≈ 2.58 µg/mL) | 128 | 12.5 (≈ 20.6 µg/mL) | – | 0.39 (≈ 0.644 µg/mL) | 2 | 196 | > 250 | 89 ± 18 | > 250 | MIC-fold improvement vs. vancomycin (MRSA KS1; MRSA KS1, ratio of MIC of vancomycin and MIC of analogue): 1; MIC (MRSA KS1; Staphylococcus aureus MRSA KS1, read-out: MIC): 0.78 µM (≈ 1.29 µg/mL); MIC-fold improvement vs. vancomycin (MRSA KS2; MRSA KS2, ratio of MIC of vancomycin and MIC of analogue): 2; MIC (MRSA KS2; Staphylococcus aureus MRSA KS2, read-out: MIC): 0.39 µM (≈ 0.644 µg/mL); MIC-fold improvement vs. vancomycin (MRSA KS6; MRSA KS6, ratio of MIC of vancomycin and MIC of analogue): 2; MIC (MRSA KS6; Staphylococcus aureus MRSA KS6, read-out: MIC): 0.39 µM (≈ 0.644 µg/mL) |

Now from value to compound, other results behind:

| MIC-fold improvement vs. vancomycin (MRSA KS89) | MIC (MRSA KS89) [µM] | MIC (S. aureus VISA/HIP5827) [µM] | MIC-fold improvement vs. vancomycin (S. aureus VISA/HIP5827) | MIC (E. faecalis VRE 29) [µM] | MIC-fold improvement vs. vancomycin (E. faecalis VRE 29) | MIC (E. faecalis VRE 53) [µM] | MIC-fold improvement vs. vancomycin (E. faecalis VRE 53) | MIC (E. faecalis VSE 1) [µM] | MIC-fold improvement vs. vancomycin (E. faecalis VSE 1) | MIC (E. faecalis VRE 6) [µM] | MIC-fold improvement vs. vancomycin (E. faecalis VRE 6) | MIC (E. faecalis VRE 37) [µM] | MIC-fold improvement vs. vancomycin (E. faecalis VRE 37) | MIC [5] [µM] | MIC-fold improvement vs. vancomycin [5] | SMILES | IC50 [1] [µM] | IC50 [2] [µM] | IC50 [3] [µM] | IC50 [4] [µM] | further results |
| --- | --- | --- | --- | --- | --- | --- | --- | --- | --- | --- | --- | --- | --- | --- | --- | --- | --- | --- | --- | --- | --- |
| 4 | 0.20 | 6.25 | 1 | 25 | 16 | 25 | 16 | 0.78 | 2 | ≤0.39 | >512 | 25 | 16 | 0.39 | 2 | CCCCCCCC[N+](C)(C)CCCNC(=O)c1ccc(NC(=O)CNC(=O)C2NC(=O)C3NC(=O)C(NC(=O)C4NC(=O)C(CC(N)=O)NC(=O)C(NC(=O)C(CC(C)C)NC)C(O)c5ccc(c(Cl)c5)Oc5cc4cc(c5OC4OC(CO)C(O)C(O)C4OC4CC(C)(N)C(O)C(C)O4)Oc4ccc(cc4Cl)C3O)c3ccc(O)c(c3)-c3c(O)cc(O)cc32)cc1 (stereo not shown) [Vanc-81] | 179 | 164 ± 6 | 122 ± 13 | > 250 | MIC (S. aureus VRSA): 0.78 µM; MIC-fold improvement vs. vancomycin (S. aureus VRSA): 128 |
| – | – | 0.39 (≈ 0.643 µg/mL) | 16 | 3.13 (≈ 5.16 µg/mL) | 128 | 3.13 (≈ 5.16 µg/mL) | 128 | 0.78 (≈ 1.29 µg/mL) | 2 | 3.13 (≈ 5.16 µg/mL) | 64 | 3.13 (≈ 5.16 µg/mL) | 128 | 0.78 (≈ 1.29 µg/mL) | 1 | CCCC#Cc1ccc(NC(=O)CNC(=O)C2NC(=O)C3NC(=O)C(NC(=O)C4NC(=O)C(CC(N)=O)NC(=O)C(NC(=O)C(CC(C)C)NC)C(O)c5ccc(c(Cl)c5)Oc5cc4cc(c5OC4OC(CO)C(O)C(O)C4OC4CC(C)(N)C(O)C(C)O4)Oc4ccc(cc4Cl)C3O)c3ccc(O)c(c3)-c3c(O)cc(O)cc32)cc1 (stereo not shown) [Vanc-68] | 39 | 42 ± 14 | 55 ± 20 | 19 ± 1 | MIC (S. aureus VRSA): 1.56 µM (≈ 2.57 µg/mL); MIC-fold improvement vs. vancomycin (S. aureus VRSA): 64 |
| 1 | 0.78 | 6.25 | 1 | 50 | 8 | 50 | 8 | 1.56 | 1 | 6.25 | 32 | 50 | 8 | 0.78 | 1 | CCCCC[N+](C)(C)CCCNC(=O)c1ccc(NC(=O)CNC(=O)C2NC(=O)C3NC(=O)C(NC(=O)C4NC(=O)C(CC(N)=O)NC(=O)C(NC(=O)C(CC(C)C)NC)C(O)c5ccc(c(Cl)c5)Oc5cc4cc(c5OC4OC(CO)C(O)C(O)C4OC4CC(C)(N)C(O)C(C)O4)Oc4ccc(cc4Cl)C3O)c3ccc(O)c(c3)-c3c(O)cc(O)cc32)cc1 (stereo not shown) [Vanc-80] | 239 | 230 ± 3 | 238 | > 250 | MIC (S. aureus VRSA): 1.56 µM; MIC-fold improvement vs. vancomycin (S. aureus VRSA): 64 |
